# Measurements: US8754079B2, “Cycloalkyl containing thienopyrimidines for pharmaceutical compositions” (Boehringer Ingelheim International GmbH, priority 2010, dated 2014)
# Where a name gives a salt, the structure may show the parent alone.
# Target: T1, MNK2 (Homo sapiens, UniProt Q9HBH9)
# T1 construct: the open reading frames of human Mnk1 and Mnk2a were amplified from cDNA; made in house; host or cells: E. coli BL21
# Test: Mnk2a in vitro kinase assay (indirect fluorescence polarization)
# Format: biochemical
# Settings: pre-activated GST-Mnk2a 2.5 nM, 20 μM ATP, 30 μM substrate peptide
# Method in brief: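 Human GST-Mnk2a was expressed in E. coli and activated in vitro with 150 nM pre-activated ERK2 and 50 μM ATP in HEPES pH 7.4/MgCl2 buffer (45 min, 30 °C). Activity on an eIF4E Ser209-derived 12mer peptide was read by competitive fluorescence polarization with a phospho-specific antibody.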
# T1 sequence (Q9HBH9 whole entry): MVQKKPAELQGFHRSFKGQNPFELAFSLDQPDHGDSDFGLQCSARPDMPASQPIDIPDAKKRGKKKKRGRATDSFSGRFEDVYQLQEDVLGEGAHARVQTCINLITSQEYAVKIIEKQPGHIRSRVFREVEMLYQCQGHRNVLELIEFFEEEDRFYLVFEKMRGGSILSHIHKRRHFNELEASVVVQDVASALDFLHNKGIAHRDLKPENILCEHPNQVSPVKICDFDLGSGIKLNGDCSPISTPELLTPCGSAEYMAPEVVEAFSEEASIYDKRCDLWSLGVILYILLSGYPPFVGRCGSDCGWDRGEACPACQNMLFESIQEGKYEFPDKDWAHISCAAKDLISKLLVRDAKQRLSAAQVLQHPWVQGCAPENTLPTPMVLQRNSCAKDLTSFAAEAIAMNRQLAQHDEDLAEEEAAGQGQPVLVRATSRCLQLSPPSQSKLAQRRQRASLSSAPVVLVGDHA
row,IC50 [nM],Structure (SMILES)
1,13,"Cc1c(C(=O)NCCCN(C)C)sc2ncnc(Nc3cccnc3O[C@H]3CC[C@H](O)CC3)c12 [Example 206, 4-[2-(trans-4-Hydroxy-cyclohexyloxy)-pyridin-3-ylamino]-5-methyl-thieno[2,3-d]pyrimidine-6-carboxylic acid (3-dimethylamino-propyl)-amide]"
2,9,"CO[C@H]1CC[C@H](Oc2ncccc2Nc2ncnc3sc(C(N)=O)c(C)c23)CC1 [Example 207, 4-[2-(trans-4-Methoxy-cyclohexyloxy)-pyridin-3-ylamino]-5-methyl-thieno[2,3-d]pyrimidine-6-carboxylic acid amide]"
3,14,CNC(=O)c1sc2ncnc(Nc3cccnc3O[C@H]3CC[C@H](OC)CC3)c2c1C [Example 208]
4,8,Cc1c(C(N)=O)sc2ncnc(Nc3ccc(F)cc3O[C@@H]3C[C@@H](O)[C@@H](O)C3)c12 [Example 212]
5,74,Cc1c(C(N)=O)sc2ncnc(Nc3ccc(F)cc3O[C@H]3C[C@@H]4OC(C)(C)O[C@@H]4C3)c12 [Example 213]
6,9,Cc1c(C(N)=O)sc2ncnc(Nc3ccc(F)cc3O[C@H]3C[C@@H]4OCO[C@@H]4C3)c12 [Example 214]
7,53,CO[C@H]1C[C@@H](Oc2cc(F)ccc2Nc2ncnc3sc(C(N)=O)c(C)c23)C[C@H]1OC [Example 216]
8,38,Cc1c(C(N)=O)sc2ncnc(Nc3ccc(F)cc3O[C@@H]3C[C@@H]4OCO[C@@H]4C3)c12 [Example 218]
9,390,Cc1c(C(N)=O)sc2ncnc(Nc3ccc(F)cc3O[C@@H]3C[C@@H]4OC(C)(C)O[C@@H]4C3)c12 [Example 220]
10,6,"Cc1c(C(N)=O)sc2ncnc(Nc3ccc(F)cc3OC3CCC(O)C3)c12 (centres unmarked) [Example 225, 4-(4-fluoro-2-(3-hydroxycyclopentyloxy)phenylamino)-5-methylthieno[2,3-d]pyrimidine-6-carboxamide]"
11,10,"Cc1c(C(=O)NCCCN(C)C)sc2ncnc(Nc3ccc(F)cc3OC3CCC(O)C3)c12 (centres unmarked) [Example 226, N-(3-(dimethylamino)propyl)-4-(4-fluoro-2-(3-hydroxycyclopentyloxy)phenylamino)-5-methylthieno[2,3-d]pyrimidine-6-carboxamide]"
12,12,"Cc1c(C(=O)NCCO)sc2ncnc(Nc3ccc(F)cc3OC3CCC(O)C3)c12 (centres unmarked) [Example 227, 4-(4-Fluoro-2-(3-hydroxycyclopentyloxy)phenylamino)-N-(2-hydroxyethyl)-5-methylthieno[2,3-d]pyrimidine-6-carboxamide]"
13,1140,"Cc1c(C(N)=O)sc2ncnc(Nc3ccc(F)cc3O[C@H]3CC[C@H](NC(=O)OC(C)(C)C)C3)c12 [Example 228, {(1S,3S)-3-[2-(6-Carbamoyl-5-methyl-thieno[2,3-d]pyrimidin-4-ylamino)-5-fluoro-phenoxy]-cyclopentyl}-carbamic acid tert-butyl ester]"
14,7,"Cc1c(C(N)=O)sc2ncnc(Nc3ccc(F)cc3O[C@H]3CC[C@H](N)C3)c12 [Example 229, 4-[2-((1S,3S)-3-Amino-cyclopentyloxy)-4-fluoro-phenylamino]-5-methyl-thieno[2,3-d]pyrimidine-6-carboxylic acid amide trifluoroacetate]"
15,4,"CC(=O)N[C@H]1CC[C@H](Oc2cc(F)ccc2Nc2ncnc3sc(C(N)=O)c(C)c23)C1 [Example 230, 4-[2-((1S,3S)-3-Acetylamino-cyclopentyloxy)-4-fluoro-phenylamino]-5-methyl-thieno[2,3-d]pyrimidine-6-carboxylic acid amide]"
16,14,"CC(=O)N[C@H]1CC[C@H](Oc2cc(F)ccc2Nc2ncnc3sc(C(=O)NCCO)c(C)c23)C1 [Example 231, 4-[2-((1S,3S)-3-Acetylamino-cyclopentyloxy)-4-fluoro-phenylamino]-5-methyl-thieno[2,3-d]pyrimidine-6-carboxylic acid (2-hydroxy-ethyl)-amide]"
17,6,CC(=O)N[C@H]1CC[C@H](Oc2cc(F)ccc2Nc2ncnc3sc(C(=O)N[C@@H]4C[C@H]4NC(=O)OC(C)(C)C)c(C)c23)C1 [Example 232]
18,19,CC(=O)N[C@H]1CC[C@H](Oc2cc(F)ccc2Nc2ncnc3sc(C(=O)NCC#CCN(C)C)c(C)c23)C1 [Example 233]
19,32,CC(=O)N[C@H]1CC[C@H](Oc2cc(F)ccc2Nc2ncnc3sc(C(=O)NC4CCN(C)CC4)c(C)c23)C1 [Example 234]
20,6,CNC(=O)c1sc2ncnc(Nc3ccc(F)cc3O[C@H]3CC[C@H](NC(C)=O)C3)c2c1C [Example 235]

row,IC50 [nM],Structure (SMILES)
1,16,CONC(=O)c1sc2ncnc(Nc3ccc(F)cc3O[C@H]3CC[C@H](NC(C)=O)C3)c2c1C [Example 236]
2,25,CC(=O)N[C@H]1CC[C@H](Oc2cc(F)ccc2Nc2ncnc3sc(C(=O)NCCCN(C)C)c(C)c23)C1 [Example 237]
3,31,CC(=O)N[C@H]1CC[C@H](Oc2cc(F)ccc2Nc2ncnc3sc(C(=O)N[C@@H]4C[C@H]4N)c(C)c23)C1 [Example 238]
4,15,CC(=O)N[C@H]1CC[C@H](Oc2cc(F)ccc2Nc2ncnc3sc(C(=O)NCCCN4CCCC4)c(C)c23)C1 [Example 239]
5,13,"CC(=O)N(C)[C@H]1CC[C@H](Oc2cc(F)ccc2Nc2ncnc3sc(C(N)=O)c(C)c23)C1 [Example 240, 4-{2-[(1S,3S)-3-(Acetyl-methyl-amino)-cyclopentyloxy]-4-fluoro-phenylamino}-5-methyl-thieno[2,3-d]pyrimidine-6-carboxylic acid amide]"
6,139,"COC(=O)c1sc2ncnc(Nc3ccc(F)cc3O[C@@H]3CCCC[C@H]3OC)c2c1C [Example 247, 4-[4-Fluoro-2-((1R,2R)-2-methoxy-cyclohexyloxy)-phenylamino]-5-methyl-thieno[2,3-d]pyrimidine-6-carboxylic acid methyl ester]"
7,10,"CO[C@@H]1CCCC[C@H]1Oc1cc(F)ccc1Nc1ncnc2sc(C(=O)O)c(C)c12 [Example 248, 4-[4-Fluoro-2-((1R,2R)-2-methoxy-cyclohexyloxy)-phenylamino]-5-methyl-thieno[2,3-d]pyrimidine-6-carboxylic acid]"
8,6,"CO[C@@H]1CCCC[C@H]1Oc1cc(F)ccc1Nc1ncnc2sc(C(N)=O)c(C)c12 [Example 249, 4-[4-Fluoro-2-((1R,2R)-2-methoxy-cyclohexyloxy)-phenylamino]-5-methyl-thieno[2,3-d]pyrimidine-6-carboxylic acid amide]"
9,19,COC1CCCCC1Oc1cc(F)ccc1Nc1ncnc2sc(C(=O)NC3CCCC3O)c(C)c12 (centres unmarked) [Example 250]
10,20,CO[C@@H]1CCCC[C@H]1Oc1cc(F)ccc1Nc1ncnc2sc(C(=O)N[C@@H]3CCC[C@H]3O)c(C)c12 [Example 251]
11,18,CO[C@@H]1CCCC[C@H]1Oc1cc(F)ccc1Nc1ncnc2sc(C(=O)NCCSC)c(C)c12 [Example 252]
12,11,CO[C@@H]1CCCC[C@H]1Oc1cc(F)ccc1Nc1ncnc2sc(C(=O)NCCCN3CCCC3)c(C)c12 [Example 254]
13,14,CO[C@@H]1CCCC[C@H]1Oc1cc(F)ccc1Nc1ncnc2sc(C(=O)NCC[S+](C)[O-])c(C)c12 (some centres unmarked) [Example 255]
14,175,Cc1c(C(=O)NCCCN2CCCC2)sc2ncnc(Nc3ccc(F)cc3OC3CCCCC3O)c12 (centres unmarked) [Example 263]
15,15,"Cc1c(C(=O)NCCO)sc2ncnc(Nc3cccnc3O[C@H]3CC[C@H](O)CC3)c12 [Example 266, 4-[2-(trans-4-hydroxy-cyclohexyloxy)-pyridine-3-ylamino]-5-methyl-thieno[2,3-d]pyrimidine-6-carboxylic acid (2-hydroxy-ethyl)-amide]"
16,10,Cc1c(C(=O)NCC#CCN(C)C)sc2ncnc(Nc3cccnc3O[C@H]3CC[C@H](O)CC3)c12 [Example 267]
17,14,Cc1c(C(=O)NCCCN2CCCC2)sc2ncnc(Nc3cccnc3O[C@H]3CC[C@H](O)CC3)c12 [Example 268]
18,24,Cc1c(C(=O)NC2CCN(C)CC2)sc2ncnc(Nc3cccnc3O[C@H]3CC[C@H](O)CC3)c12 [Example 269]
19,58,Cc1c(C(=O)NCCCN2CCC2)sc2ncnc(Nc3cccnc3O[C@H]3CC[C@H](O)CC3)c12 [Example 270]

row,Structure (SMILES),IC50 [nM]
1,"CC(=O)N[C@H]1C[C@H](Oc2cc(F)ccc2Nc2ncnc3sc(C(=O)NCC#N)c(C)c23)C1 [Example 241, 4-[2-(trans-3-Acetylamino-cyclobutoxy)-4-fluoro-phenylamino]-5-methyl-thieno[2,3-d]pyrimidine-6-carboxylic acid cyanomethyl-amide]",49
2,"Cc1c(C(N)=O)sc2ncnc(Nc3ccc(F)cc3OC3CCC3)c12 [Example 243, 4-(2-Cyclobutoxy-4-fluoro-phenylamino)-5-methyl-thieno[2,3-d]pyrimidine-6-carboxylic acid amide]",9
3,"Cc1c(C(N)=O)sc2ncnc(Nc3ccc(F)cc3OC3CCCC3)c12 [Example 244, 4-(2-Cyclopentoxy-4-fluoro-phenylamino)-5-methyl-thieno[2,3-d]pyrimidine-6-carboxylic acid amide]",2
4,"CC(=O)N[C@H]1C[C@H](Oc2cc(F)ccc2Nc2ncnc3sc(C(=O)NCC#CCN(C)C)c(C)c23)C1 [Example 245, 4-[2-(trans-3-Acetylamino-cyclobutoxy)-4-fluoro-phenylamino]-5-methyl-thieno[2,3-d]pyrimidine-6-carboxylic acid (4-dimethylamino-but-2-ynyl)-amide]",39
5,"CC(=O)N[C@H]1C[C@H](Oc2cc(F)ccc2Nc2ncnc3sc(C(=O)N[C@H]4C[C@@H]4N)c(C)c23)C1 [Example 246, 4-[2-(trans-3-Acetylamino-cyclobutoxy)-4-fluoro-phenylamino]-5-methyl-thieno[2,3-d]pyrimidine-6-carboxylic acid (2-amino-cyclopropyl)-amide]",65
